Reference: patent US20230133958A1, “COMPOUNDS USEFUL IN MODULATING EGFR AND PI3K” (Mekanistic Therapeutics LLC, priority 2021, published 2023)

What was measured:
Format in all cases: cell-based
CCRF-CEM = experiment: NCI COMPARE panel (SRB growth inhibition), CCRF-CEM; conditions: Homo sapiens, Leukemia, 48 h
Protocol: (§1) The human tumor cell lines of the cancer screening panel are grown in RPMI 1640 medium containing 5% fetal bovine serum and 2 mM L-glutamine. For a typical screening experiment, cells are inoculated into 96 well microtiter plates in 100 µL at plating densities ranging from 5,000 to 40,000 cells/well depending on the doubling time of individual cell lines. After cell inoculation, the microtiter plates are incubated at 37° C., 5% CO2, 95% air and 100% relative humidity for 24 h prior to addition of experimental drugs.
(§2) After 24 h, two plates of each cell line are fixed in situ with TCA, to represent a measurement of the cell population for each cell line at the time of drug addition (Tz). Experimental drugs are solubilized in dimethyl sulfoxide at 400-fold the desired final maximum test concentration and stored frozen prior to use. […]
(§3) Following drug addition, the plates are incubated for an additional 48 h at 37° C., 5 % CO2, 95% air, and 100% relative humidity. […] Bound stain is subsequently solubilized with 10 mM trizma base, and the absorbance is read on an automated plate reader at a wavelength of 515 nm. […] Using the seven absorbance measurements [time zero, (Tz), control growth, (C), and test growth in the presence of drug at the five concentration levels (Ti)], the percentage growth is calculated at each of the drug concentrations levels. Percentage growth inhibition is calculated as: […]

RPMI-8226 = experiment: NCI COMPARE panel (SRB growth inhibition), RPMI-8226; conditions: Homo sapiens; Leukemia, RPMI-8226, 48 h
Protocol: as §1, §2, §3

HCT-116 = experiment: NCI COMPARE panel (SRB growth inhibition), HCT-116; conditions: Homo sapiens; Colon Cancer, HCT-116, 48 h
Protocol: as §1, §2, §3

SN12C = experiment: NCI COMPARE panel (SRB growth inhibition), SN12C; conditions: Homo sapiens, Renal Cancer, 48 h
Protocol: as §1, §2, §3

| Structure (SMILES) | GI50 (CCRF-CEM) | GI50 (RPMI-8226) | GI50 (HCT-116) | GI50 (SN12C) |
| --- | --- | --- | --- | --- |
| CS(=O)(=O)Nc1cc(-c2ccc3ncnc(Nc4cccc(Cl)c4F)c3c2)cnc1Cl [Compound 6, N-[2-chloro-5-[4-(3-chloro-2-fluoro-anilino)quinazolin-6-yl]-3-pyridyl] methanesulfonamide] | 125 to 250 nM | 125 to 250 nM | 125 to 250 nM | 125 to 250 nM |
| CS(=O)(=O)Nc1cc(-c2ccc3ncc(C#N)c(Nc4cccc(Cl)c4F)c3c2)cnc1Cl [Compound 10, N-[2-chloro-5-[4-(3-chloro-2-fluoro-anilino)-3-cyano-6-quinolyl]-3-pyridyl]methanesulfonamide] | ≤ 75 nM | ≤ 75 nM | ≤ 75 nM | 75 to 125 nM |
